Key:
[1] = system: lipid peroxidation in stomach; experiment: Lipid peroxidation in stomach (TBARS); format: in vivo, mice; conditions: 100 mg/kg, 8 h after analgesic test
[2] = target: T1, HCV NS5B RNA dependent RNA polymerase (Hepatitis C virus genotype 1b, UniProt P26663); experiment: NS5B inhibition assay (primer dependent elongation, poly rA-U12); format: biochemical; conditions: read-out: Anti-NS5B Activity (% Inh., 100 µM)
T1 construct: HCV NS5B RNA dependent RNA polymerase activity
Outline: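 Primer-dependent elongation on poly rA-U12 by HCV genotype 1b NS5B RdRp; compounds from DMSO stocks, preliminary screen at 100 μM. Activity expressed relative to a DMSO-matched no-inhibitor control set at 100%.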

glutathione (GSH) = experiment: GSH level in liver, kidney, colon, brain; format: in vivo, mice; conditions: 72 h
Method: Tissue samples were homogenized with ice-cold 150 mM KCl for the determination of LPO and glutathione (GSH) levels. The LPO levels were assayed by monitoring TBARS formation as described above.

T1 sequence (P26663 2420-3010): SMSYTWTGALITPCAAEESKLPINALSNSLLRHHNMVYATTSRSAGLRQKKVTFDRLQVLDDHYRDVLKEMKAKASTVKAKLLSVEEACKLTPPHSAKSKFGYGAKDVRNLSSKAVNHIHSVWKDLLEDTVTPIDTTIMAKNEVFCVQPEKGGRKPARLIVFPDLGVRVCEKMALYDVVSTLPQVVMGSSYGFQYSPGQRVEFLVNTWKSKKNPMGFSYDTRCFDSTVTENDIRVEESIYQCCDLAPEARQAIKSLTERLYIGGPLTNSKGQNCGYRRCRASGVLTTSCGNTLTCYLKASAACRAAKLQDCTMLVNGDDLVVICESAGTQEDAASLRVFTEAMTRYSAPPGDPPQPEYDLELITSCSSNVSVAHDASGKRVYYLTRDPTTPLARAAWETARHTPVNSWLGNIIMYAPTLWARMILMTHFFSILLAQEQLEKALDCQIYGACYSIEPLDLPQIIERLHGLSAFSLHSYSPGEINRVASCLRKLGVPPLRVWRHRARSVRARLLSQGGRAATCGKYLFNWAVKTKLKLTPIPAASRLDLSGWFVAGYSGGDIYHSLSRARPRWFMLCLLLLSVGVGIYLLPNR

CCNC(=S)NS(=O)(=O)c1ccc(-n2nc(C(F)(F)F)cc2-c2ccc(C)cc2)cc1 [Compound 1a, N-(Ethylcarbamothioyl)-4-[5-(4-methylphenyl)-3-(trifluoromethyl)-1H-pyrazol-1-yl] benzenesulfonamide]
Lipid peroxidation [1]: 387.7 ± 12.8 nmol TBARS/g wet weight | inhibition at 100 µM [2]: 49.4% | GSH (glutathione (GSH); brain, 100 mg/kg oral): 18.7 ± 5.52 µmol/g tissue | GSH (glutathione (GSH); brain, 200 mg/kg oral): 18.74 ± 3.03 µmol/g tissue | GSH (glutathione (GSH); colon, 100 mg/kg oral): 27.22 ± 2.41 µmol/g tissue | GSH (glutathione (GSH); colon, 200 mg/kg oral): 25.16 ± 2.76 µmol/g tissue | GSH (glutathione (GSH); kidney, 100 mg/kg oral): 17.02 ± 5.23 µmol/g tissue | GSH (glutathione (GSH); kidney, 200 mg/kg oral): 18.26 ± 3.28 µmol/g tissue | GSH (glutathione (GSH); liver, 100 mg/kg oral): 22.68 ± 1.20 µmol/g tissue | GSH (glutathione (GSH); liver, 200 mg/kg oral): 24.58 ± 4.47 µmol/g tissue

From PMC6269910 (Molecules, 2013)
